Source: ChEMBL document CHEMBL1201862, “PubChem BioAssay data set” (2004)
The source made the active and inactive calls.

How the values were obtained:
[1] = target: Cyclin-dependent kinase 5/CDK5 activator 1 (Homo sapiens, UniProt Q00535); test: CDK5/p35 kinase inhibitors, dose response, biochemical, cherry-picked samples, set 2 (AID 504545)
[2] = target: Eukaryotic translation initiation factor 4H (Homo sapiens, UniProt Q15056); test: human eIF4H binding inhibitors, primary screen, translation initiation inhibitor project, biochemical, uHTS, fluorescence polarization (AID 2012)
[3] = target: T1, Polyadenylate-binding protein 1 (Homo sapiens, UniProt P11940); test: PABP poly(A) RNA binding inhibitors, primary screen, biochemical, fluorescence polarization, uHTS (AID 2014)
T1 sequence (P11940 whole entry): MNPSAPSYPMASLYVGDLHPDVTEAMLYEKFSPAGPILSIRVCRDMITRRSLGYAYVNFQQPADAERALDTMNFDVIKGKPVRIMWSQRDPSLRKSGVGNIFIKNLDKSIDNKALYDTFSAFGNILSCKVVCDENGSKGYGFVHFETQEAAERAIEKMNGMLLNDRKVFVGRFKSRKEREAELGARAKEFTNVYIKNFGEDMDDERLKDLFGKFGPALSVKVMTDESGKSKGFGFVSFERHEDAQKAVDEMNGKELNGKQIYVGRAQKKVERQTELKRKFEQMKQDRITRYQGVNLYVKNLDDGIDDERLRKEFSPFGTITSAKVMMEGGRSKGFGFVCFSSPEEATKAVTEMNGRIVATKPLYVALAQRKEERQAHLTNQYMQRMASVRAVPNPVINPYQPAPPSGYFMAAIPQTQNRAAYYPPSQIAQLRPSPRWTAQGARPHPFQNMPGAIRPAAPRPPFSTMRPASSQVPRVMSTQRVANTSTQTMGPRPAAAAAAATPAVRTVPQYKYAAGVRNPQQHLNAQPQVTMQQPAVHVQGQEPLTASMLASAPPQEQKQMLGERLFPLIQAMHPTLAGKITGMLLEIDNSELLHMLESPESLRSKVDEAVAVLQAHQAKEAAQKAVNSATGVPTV

Protein S100-A4 = Protein S100-A4 (Homo sapiens, UniProt P26447); test: S100A4-myosin IIA binding inhibitor potency, dose response, biochemical, fluorescence polarization, cherry-picked hits (AID 687001); assay type: functional
Protein S100-A4, sequence (P26447 whole entry): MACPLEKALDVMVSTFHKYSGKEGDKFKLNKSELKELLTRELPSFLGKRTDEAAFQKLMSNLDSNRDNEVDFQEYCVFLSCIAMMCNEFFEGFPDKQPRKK

HEK293 [4] = test: PMA/Ionomycin induced NF-kB luciferase assay in 293- NF-kB-Luc stable cells. [Related pubchem assays: 1299, 1270, 1295, 1375, 1287, 1281, 1293, 1291, 1289, 1280, 465, 1364, 1282, 1372, 1365, 1370, 1367, 1366, 1269, 1373, 1292, 1290, 1302, 1371, 1283, 1271, 1294, 1374, 1368, 1369 ]; assay type: functional, cell-based; settings: Homo sapiens
[5] = target: Luciferin 4-monooxygenase (Photinus pyralis, UniProt P08659); test: In vitro luciferase assay using purified luciferase. [Related pubchem assays: 1299, 1270, 1295, 1375, 1287, 1281, 1293, 1291, 1289, 1280, 465, 1364, 1282, 1372, 1365, 1370, 1367, 1366, 1266, 1373, 1292, 1290, 1302, 1371, 1283, 1271, 1294, 1374, 1368, 1369 ]
Luciferin 4-monooxygenase, sequence (P08659 whole entry): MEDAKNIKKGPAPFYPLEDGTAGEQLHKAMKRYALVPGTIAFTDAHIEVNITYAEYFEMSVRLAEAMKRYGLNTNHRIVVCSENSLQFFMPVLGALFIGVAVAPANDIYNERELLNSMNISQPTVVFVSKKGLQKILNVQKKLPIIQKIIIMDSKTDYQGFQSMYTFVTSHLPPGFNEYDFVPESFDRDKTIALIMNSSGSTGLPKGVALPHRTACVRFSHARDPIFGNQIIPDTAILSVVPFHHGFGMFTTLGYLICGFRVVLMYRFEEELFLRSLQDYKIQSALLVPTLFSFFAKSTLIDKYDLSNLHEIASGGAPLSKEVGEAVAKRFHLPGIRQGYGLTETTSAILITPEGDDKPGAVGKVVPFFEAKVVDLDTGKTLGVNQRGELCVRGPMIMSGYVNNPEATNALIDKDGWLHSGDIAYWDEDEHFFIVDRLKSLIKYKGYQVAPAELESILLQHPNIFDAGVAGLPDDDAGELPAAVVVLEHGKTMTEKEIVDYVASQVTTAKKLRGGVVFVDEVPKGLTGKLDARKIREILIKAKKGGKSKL

HEK293 [6] = test: PMA/Ionomycin-induced IL-8 production in HEK293- NF-kB-Luc stable cells. [Related pubchem assays: 1299, 1295, 1375, 1287, 1281, 1293, 1291, 1289, 1280, 465, 1364, 1282, 1372, 1365, 1367, 1366, 1266, 1269, 1373, 1292, 1290, 1302, 1371, 1283, 1271, 1294, 1374, 1368, 1369 ]; assay type: functional, cell-based; settings: Homo sapiens
HEK293 [7] = test: Cytotoxicity assay in HEK293 cells. [Related pubchem assays (depositor defined):AID1266, AID1269, AID1270, AID1271, AID1280, AID1281, AID1282, AID1283, AID1287, AID1289, AID1290, AID1291, AID1292, AID1293, AID1294, AID1295, AID1299, AID1302, AID1364, AID1365, AID1366, AID1367, AID1369, AID1370, AID1371, AID1372, AID1373, AID1374, AID1375, AID1384 …; assay type: functional, cell-based; settings: Homo sapiens
HEK293 [8] = test: TNF Induced NF-kB Luciferase in 293-NF-kB-Luc Stable Cells. [Related pubchem assays: 1266, 1299, 1269, 1373, 1292, 1290, 1302, 1371, 1283, 1270, 1295, 1271, 1375, 1294, 1374, 1281, 1293, 1291, 1289, 1280, 465, 1368, 1364, 1282, 1372, 1365, 1369, 1370, 1367, 1366 ]; assay type: functional, cell-based; settings: Homo sapiens
HEK293 [9] = test: cytotoxicity in HEK293T NF-kB-Luc cells, SAR follow-up, cytotoxicity control for NF-kB activator project, cell-based, resazurin fluorescence (AID 493251); assay type: functional; settings: Homo sapiens
Jurkat = test: SAR Analysis of small molecule inhibitors of T-cell specific antigen receptor-induced NF-kB activation in a Jurkat cell line using a luminescence assay - Set 2. [Related pubchem assays (depositor defined):AID435003, AID435012, AID465]; assay type: functional, cell-based; settings: Homo sapiens
HEK293 [10] = test: SAR Analysis of small molecule inhibitors of T-cell specific antigen receptor-induced NF-kB activation in a HEK-293T cell line using a luminescence assay - Set 2. [Related pubchem assays (depositor defined):AID435003, AID435012, AID489026]; assay type: functional, cell-based; settings: Homo sapiens
[11] = enhancers of respiration in Yfh1-depleted yeast, dose response, Friedreich's ataxia, plus single-dose screen (AID 1465); assay type: functional;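 note: yeast depleted of Yfh1p frataxin homolog grown on glycerol needing respiration; WST-1 tetrazolium dye reduction as measure of cellular dehydrogenase metabolic activity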
[12] = target: FAD-linked sulfhydryl oxidase ALR (Homo sapiens, UniProt P55789); test: inhibitors of human ALR sulfhydryl oxidase, dose response, biochemical, H2O2 detection, luminescence, cherry-pick (AID 493248)
FAD-linked sulfhydryl oxidase ALR, sequence (P55789 whole entry): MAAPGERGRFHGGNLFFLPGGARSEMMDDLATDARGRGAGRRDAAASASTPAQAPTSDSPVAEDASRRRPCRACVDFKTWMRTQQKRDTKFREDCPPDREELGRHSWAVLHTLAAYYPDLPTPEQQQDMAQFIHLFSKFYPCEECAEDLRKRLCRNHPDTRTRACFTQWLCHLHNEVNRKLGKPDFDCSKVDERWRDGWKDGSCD

Hexokinase HKDC1 = Hexokinase HKDC1 (Homo sapiens, UniProt Q2TB90); test: HKDC1 hexokinase inhibitors, dose response, biochemical, W721R variant (AID 504729); assay type: functional
Hexokinase HKDC1, sequence (Q2TB90 whole entry): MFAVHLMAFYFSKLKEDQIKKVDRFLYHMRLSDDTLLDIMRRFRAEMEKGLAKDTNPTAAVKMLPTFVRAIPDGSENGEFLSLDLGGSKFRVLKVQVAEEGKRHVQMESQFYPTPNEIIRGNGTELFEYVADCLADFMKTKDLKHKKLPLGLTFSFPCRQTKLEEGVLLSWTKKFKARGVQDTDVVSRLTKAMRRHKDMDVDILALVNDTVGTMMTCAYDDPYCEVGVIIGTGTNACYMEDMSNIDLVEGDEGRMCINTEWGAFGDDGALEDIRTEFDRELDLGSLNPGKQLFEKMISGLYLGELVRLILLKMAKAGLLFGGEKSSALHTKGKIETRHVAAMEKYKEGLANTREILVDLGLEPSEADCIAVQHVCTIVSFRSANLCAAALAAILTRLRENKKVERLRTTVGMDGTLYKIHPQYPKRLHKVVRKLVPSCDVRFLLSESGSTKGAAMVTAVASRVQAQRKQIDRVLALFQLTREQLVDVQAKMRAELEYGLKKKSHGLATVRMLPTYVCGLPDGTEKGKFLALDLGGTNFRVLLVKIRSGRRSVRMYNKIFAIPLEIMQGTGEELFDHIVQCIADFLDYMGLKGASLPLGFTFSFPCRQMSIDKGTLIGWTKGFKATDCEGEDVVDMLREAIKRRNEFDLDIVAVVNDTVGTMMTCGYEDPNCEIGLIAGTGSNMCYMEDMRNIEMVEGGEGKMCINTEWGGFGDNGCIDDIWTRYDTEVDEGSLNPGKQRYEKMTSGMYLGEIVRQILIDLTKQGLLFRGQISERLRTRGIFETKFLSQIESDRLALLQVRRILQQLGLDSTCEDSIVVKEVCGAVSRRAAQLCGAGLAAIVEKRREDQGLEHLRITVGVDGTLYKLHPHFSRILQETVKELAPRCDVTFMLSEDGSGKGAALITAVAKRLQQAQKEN

[13] = target: T2, Microphthalmia-associated transcription factor (Homo sapiens, UniProt O75030); test: TRPM1 promoter luciferase signal decrease, dose response, MITF inhibitor project, cell-based, SK-MEL-5, cherry-picked, set 3 (AID 493073); assay type: functional
T2 sequence (O75030 whole entry): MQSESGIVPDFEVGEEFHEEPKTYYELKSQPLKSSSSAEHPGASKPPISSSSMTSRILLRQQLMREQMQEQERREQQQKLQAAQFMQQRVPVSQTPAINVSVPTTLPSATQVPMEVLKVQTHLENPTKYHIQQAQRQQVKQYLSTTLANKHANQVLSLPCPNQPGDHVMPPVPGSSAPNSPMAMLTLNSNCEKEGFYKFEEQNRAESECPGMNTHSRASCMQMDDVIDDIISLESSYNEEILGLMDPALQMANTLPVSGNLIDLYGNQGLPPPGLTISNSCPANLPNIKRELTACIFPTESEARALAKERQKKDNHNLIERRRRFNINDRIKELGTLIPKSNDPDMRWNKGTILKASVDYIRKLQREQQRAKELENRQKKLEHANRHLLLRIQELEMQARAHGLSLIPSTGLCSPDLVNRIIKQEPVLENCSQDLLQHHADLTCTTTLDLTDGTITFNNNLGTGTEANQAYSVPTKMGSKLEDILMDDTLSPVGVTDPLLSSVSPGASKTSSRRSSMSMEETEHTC

[14] = target: T3, Replicative DNA helicase DnaB (Mycobacterium tuberculosis, UniProt P9WMR3); test: DnaB intein splicing inhibitors, dose response, biochemical, cell-free fluorescence (AID 449749); assay type: functional
T3 sequence (P9WMR3 whole entry): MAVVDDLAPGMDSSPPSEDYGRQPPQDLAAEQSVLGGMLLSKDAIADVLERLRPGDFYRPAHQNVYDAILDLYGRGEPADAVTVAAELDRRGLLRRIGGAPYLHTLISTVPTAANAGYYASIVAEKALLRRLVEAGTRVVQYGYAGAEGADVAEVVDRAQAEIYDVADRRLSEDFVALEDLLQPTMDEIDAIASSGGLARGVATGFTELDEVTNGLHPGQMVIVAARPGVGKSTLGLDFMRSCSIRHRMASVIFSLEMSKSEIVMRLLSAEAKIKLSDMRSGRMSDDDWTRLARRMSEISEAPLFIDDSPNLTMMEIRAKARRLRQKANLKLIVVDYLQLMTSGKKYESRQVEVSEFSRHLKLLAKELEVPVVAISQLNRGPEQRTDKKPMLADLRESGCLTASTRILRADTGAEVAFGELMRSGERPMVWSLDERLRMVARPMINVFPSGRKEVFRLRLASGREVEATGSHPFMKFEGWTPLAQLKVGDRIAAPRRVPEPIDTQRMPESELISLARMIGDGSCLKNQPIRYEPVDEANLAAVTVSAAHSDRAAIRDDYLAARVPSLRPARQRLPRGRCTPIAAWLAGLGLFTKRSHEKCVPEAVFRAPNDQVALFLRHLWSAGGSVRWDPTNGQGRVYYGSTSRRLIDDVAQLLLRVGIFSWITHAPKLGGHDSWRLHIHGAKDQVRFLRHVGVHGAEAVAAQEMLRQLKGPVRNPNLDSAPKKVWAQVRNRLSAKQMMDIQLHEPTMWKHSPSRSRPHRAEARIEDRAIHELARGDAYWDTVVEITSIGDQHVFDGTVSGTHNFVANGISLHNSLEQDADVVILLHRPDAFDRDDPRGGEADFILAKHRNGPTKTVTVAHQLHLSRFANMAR

Vero = Vero cell cytotoxicity, cytotoxicity control for flavivirus capping enzyme inhibitors (AID 588742); assay type: functional; settings: Chlorocebus sabaeus
Protein RecA = target: T4, Protein RecA (Mycobacterium tuberculosis, UniProt P9WHJ3); test: Fluorescence Cell-Free Homogeneous Dose Retest to Identify Inhibitors of RecA-Intein Splicing Activity. [Related pubchem assays (depositor defined):AID2097, AID2223, AID489010, AID492950]; assay type: functional
T4 sequence (P9WHJ3 whole entry): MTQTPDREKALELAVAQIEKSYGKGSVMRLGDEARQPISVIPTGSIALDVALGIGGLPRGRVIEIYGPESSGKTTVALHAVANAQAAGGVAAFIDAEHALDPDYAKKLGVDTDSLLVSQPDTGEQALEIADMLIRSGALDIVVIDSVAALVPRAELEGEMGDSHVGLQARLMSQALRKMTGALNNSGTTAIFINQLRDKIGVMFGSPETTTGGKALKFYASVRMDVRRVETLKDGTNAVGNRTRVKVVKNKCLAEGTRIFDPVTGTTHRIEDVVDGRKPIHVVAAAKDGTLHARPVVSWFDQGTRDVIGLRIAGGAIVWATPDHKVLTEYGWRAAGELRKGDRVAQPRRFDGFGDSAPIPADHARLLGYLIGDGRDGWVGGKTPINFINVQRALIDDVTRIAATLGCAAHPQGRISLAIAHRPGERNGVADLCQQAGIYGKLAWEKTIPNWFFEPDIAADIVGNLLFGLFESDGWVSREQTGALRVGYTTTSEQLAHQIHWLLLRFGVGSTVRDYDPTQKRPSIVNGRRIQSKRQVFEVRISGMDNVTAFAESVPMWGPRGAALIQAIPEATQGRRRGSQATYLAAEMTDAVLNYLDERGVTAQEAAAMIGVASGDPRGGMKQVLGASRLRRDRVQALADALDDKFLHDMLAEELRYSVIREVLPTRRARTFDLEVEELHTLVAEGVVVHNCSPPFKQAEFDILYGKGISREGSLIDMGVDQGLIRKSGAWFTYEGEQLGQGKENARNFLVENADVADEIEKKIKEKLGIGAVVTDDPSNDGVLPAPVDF

INS1 = test: beta cell apoptosis inhibitors, cytokine rescue, dose response, luminescence, retest (AID 449756); assay type: functional, cell-based; settings: Rattus norvegicus;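 note: cell death triggered by IL-1 beta plus TNF-alpha plus IFN-gamma mixture; protective hits raise ATP signal compared with cytokine alone wells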
A-375 = test: A375 melanoma cell viability reduction, dose response, counter-screen for MITF modulator project, cherry-pick samples, set 2 (AID 540335); assay type: functional, cell-based; settings: Homo sapiens
[15] = target: T1, Polyadenylate-binding protein 1; test: PABP1 MLLE–PAM2 interaction inhibitors, dose response, miRNA deadenylation inhibitor project, biochemical, fluorescence polarization, Cy5-PAM2 peptide, secondary (AID 602260); assay type: functional; settings: read-out: IC50_Mean
[16] = target: T1, Polyadenylate-binding protein 1; test: PABP1 MLLE–PAM2 binding inhibitor potency, dose response, biochemical, fluorescence polarization, FITC-PAM2 peptide (AID 602259); assay type: functional; settings: read-out: IC50_Mean
[17] = target: T5, Intestinal-type alkaline phosphatase (Homo sapiens, UniProt P09923); test: Dose Response confirmation of uHTS hits from a small molecule inhibitors of human intestinal alkaline phosphatase via a luminescent assay. [Related pubchem assays (depositor defined):AID2544, AID2574]; assay type: functional
T5 sequence (P09923 whole entry): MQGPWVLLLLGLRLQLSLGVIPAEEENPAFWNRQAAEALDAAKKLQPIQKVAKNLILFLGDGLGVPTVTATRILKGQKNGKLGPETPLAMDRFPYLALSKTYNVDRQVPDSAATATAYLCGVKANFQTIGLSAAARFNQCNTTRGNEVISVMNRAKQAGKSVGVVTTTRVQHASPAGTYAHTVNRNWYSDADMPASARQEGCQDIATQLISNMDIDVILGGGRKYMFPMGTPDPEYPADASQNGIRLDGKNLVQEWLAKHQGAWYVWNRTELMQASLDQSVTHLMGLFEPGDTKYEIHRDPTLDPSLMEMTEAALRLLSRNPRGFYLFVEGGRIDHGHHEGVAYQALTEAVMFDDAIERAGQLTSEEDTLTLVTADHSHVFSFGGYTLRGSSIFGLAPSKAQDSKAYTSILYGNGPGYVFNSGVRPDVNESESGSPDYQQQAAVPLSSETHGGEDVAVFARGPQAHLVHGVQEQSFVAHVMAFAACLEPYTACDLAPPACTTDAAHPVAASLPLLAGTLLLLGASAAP

[18] = target: T5, Intestinal-type alkaline phosphatase; test: human intestinal alkaline phosphatase activators, dose response, biochemical, luminescence, uHTS hits (AID 463120); assay type: functional
Wee1-like protein kinase = Wee1-like protein kinase (Homo sapiens, UniProt P30291); test: G2/M cell cycle arrest in HeLa, late-stage follow-up, mechanism study for Wee1 degradation inhibitor project, FACS, panel member Wee1 Degradation (AID 2088)
Wee1-like protein kinase, sequence (P30291 whole entry): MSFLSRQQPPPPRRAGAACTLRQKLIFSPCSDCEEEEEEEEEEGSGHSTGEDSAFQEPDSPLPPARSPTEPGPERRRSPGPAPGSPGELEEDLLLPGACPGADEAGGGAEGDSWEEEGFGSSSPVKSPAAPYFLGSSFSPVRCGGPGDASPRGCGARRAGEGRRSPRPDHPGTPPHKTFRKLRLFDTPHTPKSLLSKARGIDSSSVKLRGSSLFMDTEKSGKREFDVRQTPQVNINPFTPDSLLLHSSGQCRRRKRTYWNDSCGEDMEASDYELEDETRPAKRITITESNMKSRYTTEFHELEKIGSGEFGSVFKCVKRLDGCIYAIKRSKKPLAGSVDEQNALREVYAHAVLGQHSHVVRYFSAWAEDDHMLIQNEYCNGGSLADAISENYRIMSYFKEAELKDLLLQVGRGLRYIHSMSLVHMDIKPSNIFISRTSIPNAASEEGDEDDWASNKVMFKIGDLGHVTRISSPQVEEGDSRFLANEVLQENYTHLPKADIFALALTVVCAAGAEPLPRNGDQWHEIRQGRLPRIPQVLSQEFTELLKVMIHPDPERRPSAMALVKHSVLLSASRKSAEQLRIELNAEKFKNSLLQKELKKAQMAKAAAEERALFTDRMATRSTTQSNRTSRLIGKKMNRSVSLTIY

[19] = target: G2/mitotic-specific cyclin-B1 (Homo sapiens, UniProt P14635); test: G2/M cell cycle arrest in HeLa, late-stage follow-up, mechanism study for Wee1 degradation inhibitor project, FACS, panel member Cyclin B Degradation (AID 2088)
G2/mitotic-specific cyclin-B1, sequence (P14635 whole entry): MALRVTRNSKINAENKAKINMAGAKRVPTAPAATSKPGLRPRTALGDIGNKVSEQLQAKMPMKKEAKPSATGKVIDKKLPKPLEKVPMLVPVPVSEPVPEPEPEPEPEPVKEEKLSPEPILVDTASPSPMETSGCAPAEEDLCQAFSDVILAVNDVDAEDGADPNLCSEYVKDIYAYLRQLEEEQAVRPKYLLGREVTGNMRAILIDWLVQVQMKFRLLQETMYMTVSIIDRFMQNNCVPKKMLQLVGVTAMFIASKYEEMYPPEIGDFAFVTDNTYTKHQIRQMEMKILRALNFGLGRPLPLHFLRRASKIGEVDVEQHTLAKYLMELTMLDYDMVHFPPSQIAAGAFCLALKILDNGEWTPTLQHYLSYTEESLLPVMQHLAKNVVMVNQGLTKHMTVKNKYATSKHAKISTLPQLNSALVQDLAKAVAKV

[20] = target: Voltage-gated N-type calcium channel alpha-1B subunit/Amyloid beta A4 precursor protein-binding family A member 1 (Homo sapiens, UniProt Q00975+Q02410); test: disruptors of Mint-PDZ/N-type channel peptide interaction – biochemical, HTRF, set 2, SAR follow-up (AID 434980); assay type: functional

Cyclin-dependent kinase 5/CDK5 activator 1, sequence (Q00535 whole entry): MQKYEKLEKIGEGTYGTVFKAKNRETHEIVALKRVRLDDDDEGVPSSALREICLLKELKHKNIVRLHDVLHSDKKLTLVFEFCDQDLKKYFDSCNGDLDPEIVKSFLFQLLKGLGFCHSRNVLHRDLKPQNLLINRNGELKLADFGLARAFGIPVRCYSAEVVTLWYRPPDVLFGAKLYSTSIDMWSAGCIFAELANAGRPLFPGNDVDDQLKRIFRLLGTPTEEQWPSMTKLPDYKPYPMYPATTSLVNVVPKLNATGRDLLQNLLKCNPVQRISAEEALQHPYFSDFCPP
Cyclin-dependent kinase 5/CDK5 activator 1, sequence (Q15078 whole entry, further chain): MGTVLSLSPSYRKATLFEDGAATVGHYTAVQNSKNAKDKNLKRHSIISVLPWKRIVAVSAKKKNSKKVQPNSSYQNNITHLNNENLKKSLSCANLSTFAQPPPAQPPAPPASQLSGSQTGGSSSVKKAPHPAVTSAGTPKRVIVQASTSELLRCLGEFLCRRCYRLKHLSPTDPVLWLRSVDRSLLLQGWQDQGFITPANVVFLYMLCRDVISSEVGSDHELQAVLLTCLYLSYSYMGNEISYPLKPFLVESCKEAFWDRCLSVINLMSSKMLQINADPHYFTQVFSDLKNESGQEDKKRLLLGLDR

COc1ccc(C(=O)c2sc(NC(C)C)nc2N)cc1OC
AC50 [1]: 90.5 µM (active)

Cc1cc2cc(CNC(=O)Nc3ccc(Cl)c(Cl)c3)ccc2n1C
IC50 [2]: 5.7 µM (active)
IC50 [3]: 4.53 µM (active)
AC50 (Protein S100-A4): 1.74 µM (active)

CCOc1ccc(NC(=O)c2ccc([N+](=O)[O-])o2)cc1
EC50 (HEK293 [4]): 2.77 µM (active)
EC50 [5]: > 8 µM (not active)
EC50 (HEK293 [6]): > 8 µM (not active)
EC50 (HEK293 [7]): > 8 µM (inactive)
EC50 (HEK293 [8]): > 8 µM (not active)
IC50 (HEK293 [9]): 50.6 µM (inactive)
IC50 (Jurkat): 38.9 µM (inactive)
IC50 (HEK293 [10]): 39.9 µM (inactive)

COc1ccc(S(=O)(=O)Nc2ccc(O)c3ccccc23)cc1
EC50 [11]: > 100 µM (active)
AC50 [12]: 18.4 µM (active)
IC50 (Hexokinase HKDC1): 21 µM (inactive)
AC50 [13]: 9.07 µM (active)
AC50 [14]: 0.0824 µM (active)
CC50 (Vero): > 40 µM (active)
EC50 (Protein RecA): 0.0478 µM (active)
AC50 (INS1): 4.67 µM (active)
AC50 (A-375): 33.1 µM (active)
IC50 [15]: > 66 µM (inactive)
IC50 [16]: > 66 µM (inactive)

O=C(Nc1cccc(-c2cccc(F)c2)c1)C1CCN(C2CCC2)CC1
IC50 [17]: > 100 µM (inactive)
EC50 [18]: > 100 µM (inactive)

Cc1ccc(Nc2cc(C)nn2-c2nc(C)cc(O)n2)cc1
EC50 (Wee1-like protein kinase): > 55.7 µM (inactive)
EC50 [19]: > 55.7 µM (inactive)

O=C(NCCN1CCCCC1)c1cc(-c2ccco2)nc2ccccc12
IC50 [20]: > 56.8 µM (inactive)
